Measurements published in patent publication US10494453B2, “Conjugate compound and uses of same” (THE UNIVERSITY OF QUEENSLAND, priority 2013, dated 2019).
Where two headings read alike, the source gives them in different places.

Assays:
MPCs [1] = conditions: cited from earlier work; for Promotion of chondrogenesis of MPCs: absent growth factors or other chondroinductive supplements
MPCs [2] = assay: qPCR gene expression of MPC pellets (chondrogenic differentiation); type: cell-based, human; conditions: for Expression of BMP13: over untreated controls
Procedure: (§1) Stro1-selected human MPCs were prepared by Lonza (Walkersville, USA) for Mesoblast Ltd (Melbourne, Australia) according to the isolation procedure described by Gronthos et al. MPCs were cultured in alphaMEM supplemented with 100 U/ml penicillin, 100 μg/ml streptomycin (Gibco/Invitrogen Carlsbad, Calif., USA), 10% batch tested foetal bovine serum (FBS), 2 mM L-Glutamine, 1 mM Sodium Pyruvate, and 100 μM L-ascorbate-2-Phosphate. Tissue culture flasks were maintained at 37° C. in 5% CO2 in an atmosphere with 95% humidity. Upon reaching 70% confluence MPCs were passaged, replating at 2000 cells/cm2.
(§2) Chondrogenic differentiation was compared for MPCs cultured in maintenance medium and treated with PPS, HA, HA-PPS and HA-PPSCOOH at concentrations equivalent to 5, 10 and 20 μg/ml unbound PPS. These factors were added to the cells prior to pellet formation, which was initiated by centrifuging 2×105 MPCs in a non-adherent U-bottom plate at 500 g for 10 min. MPC pellets were cultured in […] medium with media changes every 3-4 days. After 21 days, samples were taken for analysis by histological staining, DMMB assay and qPCR.
Total RNA was extracted using an RNeasy Minikit with on-column DNase treatment (Qiagen) according to the manufacturer's instructions, cDNA was synthesized from 250 ng RNA, or the equivalent volume of DNase and RNasefree water for no-RT controls, using the SuperScript® III First-Strand Synthesis System (Invitrogen). qPCR reactions were set-up in a total volume of 10 μl with 1× Platinum SYBR Green qPCR SuperMix-UDG (Invitrogen) and 0.2 μM forward and reverse primers. A 7500 Fast Real-Time PCR System (Applied Biosystems) with fast cycling parameters of 2 min at 50° C., 2 min at 95° C. then 40 cycles of 3 sec at 95° C. and 30 sec at 60° C. followed by a melt curve was used to run the samples. Data was analysed using the 2-^ΔΔct method and normalized back to untreated monolayer levels.

MPCs [3] = assay: CCK8 assay of MPC proliferation; type: cell-based, human; conditions: 7 days; concentrations equivalent to 5, 10 and 20 μg/ml unbound PPS
Procedure: as §1
MPCs were seeded at a density of 2000 cells/cm2 in a 96-well plate and allowed to adhere for 4 hrs at which point the medium was exchanged for MPC maintenance medium supplemented with PPS, HA, HA-PPS and HA-PPSCOOH at concentrations equivalent to 5, 10 and 20 μg/ml unbound PPS. MPCs were cultured for 7 days with media changes every 2-3 days and the cell number determined by CCK8 assay (Sigma). Briefly, the culture medium was replaced with 100 μl MPC maintenance medium (without phenol red) containing 10% (v/v) CCX8. After 2 hrs the absorbance was read at 450 nm. All samples were performed in triplicate and normalised to blank medium without cells.

MPCs [4] = assay: DMMB assay for GAG content of chondrogenic MPC pellets; type: cell-based, human
Procedure: as §2
Chondrogenic pellets were collected, rinsed in PBS and lysed in 1 mg/ml Papain in 100 mM sodium phosphate, 5 mM EDTA and 5 mM L-cystein (pH 6.5) overnight at 60° C. Samples of 40 μl were plated in triplicate with the addition of 10 μl 1% BSA in PBS and 50 μl 2×1,9-dimethylmethylene blue (DMMB). These were incubated at room temperature for 15 min and the absorbance at 525 nm read using a Spectramax M5 Fluorometer (Molecular Devices). Samples were normalized to DNA content as assessed by PicoGreen assay (Molecular Probes: performed according to the manufacturer's instructions).

MPCs [5] = assay: Collagen-II immunofluorescence of MPC/hydrogel composites; type: cell-based, human; conditions: compared to gels alone
Procedure: (§3) MPCs (P4-6) were encapsulated in gels containing 15 mg/ml HATYR, 16.5 mg/ml PEGHPA. 0.25 U/ml horseradish peroxidase (HRP) and varying amounts of hydrogen peroxide (H2O2). Soluble PPS was added into the gels prior to crosslinking at a final concentration of 5 μg/ml. HA-PPS and HA-PPSCOOH were incorporated at concentrations of 16 μg/ml and 9 μg/ml respectively giving a concentration of PPS equivalent to 5 μg/ml unbound PPS.
(§4) MPCs were resuspended to a concentration of 5×10^6 cells/ml in solution containing all of the components except H2O2 and thoroughly mixed. Crosslinking was then initiated by the addition of H2O2 and the gels spotted out into lowbinding tissue culture plates. After 15 minutes, growth media was added to the well and the cell/gel composites cultured for up to 21 days with media changes every 3-4 days.
Samples were fixed in 4% paraformaldehyde for 20 min and rinsed with PBS. To detect Collagen-II, the samples were digested with 0.01% pepsin (w/v) in 0.01M HCL (pH2) for 30 min at 37° C. and incubated in 0.1% Triton-X-100 for […] at RT° C. before blocking in 2% BSA/2% goat serum for 1 hr. A Collagen-II antibody (Abram ab3092) was used at a dilution of 1/50 for 2 hrs followed by incubation with an AlexFluor 488-conjugated secondary antibody for 1 hr. […]

MPCs [6] = assay: Live/dead staining of MPCs encapsulated in HA/PEG hydrogels; type: cell-based, human; conditions: HA/PEG hydrogels containing the substance; 24 hrs and 7 days
Procedure: as §3, §4

[7] = Rheological characterisation of PEG/HA hydrogels; type: physicochemical; conditions: incorporated into PEG/HA hydrogel
Procedure: All rheological measurements were obtained using an AR G2 rheometer (TA Instruments, New Castle, Del.) in oscillatory mode using a 20 mm diameter stainless steel flat plate and lower Teflon Pelletier surface. The gels were synthesized and, upon addition of the H2O2, immediately vortexed and loaded between the plates of the rheometer with a gap measurement of 1000 μm. Gelation kinetics and final moduli were determined by timesweeps at 37° C., conducted with a controlled strain of 1% and an angular frequency of 6.28 rad/sec. Frequency sweeps were performed between 5.000E-3 to 50 rad/sec at 1% strain. Stress sweeps confirmed that this was within the linear viscoelastic region.

Swelling of hydrogels = type: physicochemical; conditions: incorporated into the hydrogels; p<0.05
Procedure: To determine the degree of swelling, 50 μl gels were synthesized and the dry weight obtained after freeze-drying for 24 hrs (Wd). The gels were then incubated in 500 μl PBS for 24 hrs at […]. The PBS was removed and the gels reweighed (Ws). The degree of swelling was determined by ((Ws-Wd)/Wd) using triplicate gels for each condition. Degradation of 50 μl gels was measured over a period of 3 months using triplicate samples for each condition. After synthesis, the gels were incubated in PBS/0.01% Sodium azide at 37° C. with weekly changes of buffer. At specific tirnepoints all excess PBS was removed and the gels weighed. The degree of degradation was expressed as a % of the original gel mass.

[8] = absence of differentiation factors

Substance: dextran sulphate
- Promotion of chondrogenesis of MPCs (MPCs [1]): did not show any success

Substance: heparin
- Promotion of chondrogenesis of MPCs (MPCs [1]): did not show any success

Substance: hyaluronic acid [HA]
- Expression of BMP13 (MPCs [2]; [8]): no effect
- MPC proliferation (CCK8 assay) (MPCs [3]): did not have this effect
- Proteoglycan (PG) synthesis by MPCs (MPCs [1]; higher concentrations): inhibited PG synthesis
- Proteoglycan (PG) synthesis by MPCs (MPCs [1]; low concentrations): showed some stimulation
- GAG production by MPCs (MPCs [4]; exposure of MPCs to substance alone): did not produce any increase in GAG production

Substance: pentosan polysulfate [PPS]
- Deposition of collagen-II around encapsulated MPCs (MPCs [5]): increased
- Expression of osteogenic transcription factor Runx2 (MPCs [2]; absence of any differentiation factors, vs untreated controls): small but significant decrease
- Expression of the BMP antagonist Noggin (MPCs [2]; [8]): decreased
- Expression of BMP13 (MPCs [2]; [8]): significantly increased
- Promotion of chondrogenesis of MPCs (MPCs [1]): induced the in vitro proliferation and chondrogenic differentiation of MPCs
- Viability of encapsulated MPCs (MPCs [6]): retained good viability
- Gelation process of hydrogel [7]: slows the gelation process
- Resulting modulus of hydrogel [7]: small decrease in resulting modulus
- Change in swelling of hydrogel (Swelling of hydrogels): decreased
- GAG content (DMMB assay) (MPCs [4]; % of untreated pellets, after 21 days, no additional chondrogenic factors): 150%
